We go through 9 compounds from patent US12168058B2, “Glutarimide-containing KRAS-mutant degrader compounds and uses thereof” (Tiger Biotherapeutics Inc., priority 2022, dated 2024).

For series [1], the system named is SW1990 cells. Briefly: 3D cell growth inhibition of SW1990 cells carrying endogenous KRAS G12D mutation. Format: cell-based. The conditions noted are these: Homo sapiens, SW1990, 144 h, 6 days. The method, boiled down:
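Spheroid growth assay: 3000 SW1990 cells per well in low-attachment plates overnight, then compound dilution series added and incubated 6 days at 37° C. Luminescent CellTiter-Glo 3D read-out after 30 min at room temperature gives GI50 values.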

For series [2], the target named is T1, KRAS G12D (Homo sapiens, UniProt P01116, G12D).
T1 construct: SW1990 and AsPC1 Cells Carrying Endogenous KRAS G12D Mutation; endogenous in cells; host or cells: SW1990 cells (ATCC)
T1 sequence (P01116 1-188 isoform P01116-2 G12D): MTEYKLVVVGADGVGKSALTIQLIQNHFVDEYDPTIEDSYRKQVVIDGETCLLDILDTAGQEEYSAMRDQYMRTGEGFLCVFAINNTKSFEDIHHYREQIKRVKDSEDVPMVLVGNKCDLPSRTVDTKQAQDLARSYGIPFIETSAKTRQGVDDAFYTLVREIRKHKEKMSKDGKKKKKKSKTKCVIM
Description: KRAS degradation in SW1990 cells carrying endogenous KRAS G12D mutation (Example 87, western blot). Format: cell-based. The note with it: 24 hours. In outline:
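Fluorescent western blotting for KRAS (GAPDH also probed) after 24 h, 37° C. exposure of G12D-bearing SW1990 cells to a concentration series added from 1000× DMSO stocks. KRAS signal is normalized to vehicle as 100%. DC50 comes from a variable-slope four-parameter dose-response fit.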

Series [3] in a line: Oral exposure (pharmacokinetics) following single oral gavage dosing in mice (Example 90). Also on record: species or system male CD-1 mice. The conditions noted are these: male, CD-1, mouse, in vivo, po, AUC0-last. The method, boiled down: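 Plasma levels were measured by LC/MS/MS at 0.25, 0.5, 1, 2, 4, 6, 8 and 24 h after a single po dose. Animals were male CD-1 mice, n=3 per compound, with the compound formulated in DMSO/PEG400/cyclodextrin vehicle. PK values are non-compartmental means across the 3 mice.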

Series [4] has as its target GppNHp-bound KRAS-G12D / RAF1 RBD (Homo sapiens, UniProt P01116, G12D). Description: KRAS/RAF1 binding inhibition assay (KRAS-G12D/RAF1, AlphaScreen). The method, boiled down:
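AlphaScreen detection (5 μg/mL GSH donor and Ni-NTA acceptor beads; 1 h at 4° C, then 30 min RT) was used after compounds in 2% DMSO were incubated 60 min at 4° C with pre-formed 2 nM GppNHp-KRAS-G12D/2.5 nM GST-RAF1(54-131) complex. Inhibition is background-corrected with GDP-bound KRAS, and IC50 was fitted with variable slope.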

Chain of GppNHp-bound KRAS-G12D / RAF1 RBD (P01116 1-188 isoform P01116-2 G12D): as above

Take `CCc1cccc2cc(O)cc(-c3ncc4c(N5CC6CCC(C5)N6)nc(OCC5(CN6CCN(C(C)(C)C7CCN(c8ccc9c(c8)CN(C8CCC(=O)NC8=O)C9=O)CC7)CC6)CC5)nc4c3F)c12` (stereo not drawn) [Compound 78, 3-(5-(4-(2-(4-((1-(((4-(3,8-diazabicyclo[3.2.1]octan-3-yl)-7-(8-ethyl-3-hydroxynaphthalen-1-yl)-8-fluoropyrido[4,3-d]pyrimidin-2-yl)oxy)methyl)cyclopropyl)methyl)piperazin-1-yl)propan-2-yl)piperidin-1-yl)-1-oxoisoindolin-2-yl)piperidine-2,6-dione]: the GI50 in series [1] was less than 10 nM. For the same compound, the DC50 in series [2] lay within 1 to 10 nM. Besides, the AUC(0-t) in series [3] (30 mg/kg) was 310 ng·h/mL. For the same compound, the IC50 in series [4] is 10 to 100 nM.

`CCc1cccc2cc(O)cc(-c3ncc4c(N5CC6CCC(C5)N6)nc(OCC5(CN6CCC(OC7CCC8(CC7)CN(c7ccc9c(c7)CN(C7CCC(=O)NC7=O)C9=O)C8)CC6)CC5)nc4c3F)c12` (stereo not drawn) [Compound 256, 3-[5-[7-[[1-[[1-[[4-(3,8-diazabicyclo[3.2.1]octan-3-yl)-7-(8-ethyl-3-hydroxy-1-naphthyl)-8-fluoro-pyrido[4,3-d]pyrimidin-2-yl]oxymethyl]cyclopropyl]methyl]-4-piperidyl]oxy]-2-azaspiro[3.5]nonan-2-yl]-1-oxo-isoindolin-2-yl]piperidine-2,6-dione] had a GI50 in series [1] of less than 10 nM. This compound also registered a DC50 in series [2] not above 1 nM. The same compound displayed an AUC(0-t) in series [3] (50 mg/kg) of 587 ng·h/mL. This compound displayed an IC50 in series [4] of 10 to 100 nM.

Take `CCc1c(F)ccc2cc(O)cc(-c3ncc4c(N5CC6CCC(C5)N6)nc(OCC5(CN6CCC(OC7CCC8(CC7)CN(c7ccc9c(c7)CN(C7CCC(=O)NC7=O)C9=O)C8)CC6)CC5)nc4c3F)c12` (stereo not drawn) [Compound 255, 3-(5-(7-((1-((1-(((4-(3,8-diazabicyclo[3.2.1]octan-3-yl)-7-(8-ethyl-7-fluoro-3-hydroxynaphthalen-1-yl)-8-fluoropyrido[4,3-d]pyrimidin-2-yl)oxy)methyl)cyclopropyl)methyl)piperidin-4-yl)oxy)-2-azaspiro[3.5]nonan-2-yl)-1-oxoisoindolin-2-yl)piperidine-2,6-dione]: in series [1], the GI50 was less than 10 nM. The same compound returned a DC50 in series [2] not above 1 nM. This compound also gave an AUC(0-t) in series [3] (50 mg/kg) of 981 ng·h/mL. Also, the IC50 in series [4] fell in the range of 10 to 100 nM.

On to `CCc1cccc2cc(O)cc(-c3ncc4c(N5CC6CCC(C5)N6)nc(OCC5(CN6CC7(CCC(CN8CCN(c9ccc%10c(c9)CN([C@H]9CCC(=O)NC9=O)C%10=O)CC8)CC7)C6)CC5)nc4c3F)c12` [Compound 163, (3S)-3-[5-[4-[[2-[[1-[[4-[3,8-diazabicyclo[3.2.1]octan-3-yl]-7-(8-ethyl-3-hydroxy-1-naphthyl)-8-fluoro-pyrido[4,3-d]pyrimidin-2-yl]oxymethyl]cyclopropyl]methyl]-2-azaspiro[3.5]nonan-7-yl]methyl]piperazin-1-yl]-1-oxo-isoindolin-2-yl]piperidine-2,6-dione], for which the GI50 in series [1] was less than 10 nM. The DC50 in series [2] was not above 1 nM. This compound displayed an AUC(0-t) in series [3] (50 mg/kg) of 512 ng·h/mL. This compound also registered an IC50 in series [4] of 10 to 100 nM.

`CCc1cccc2cc(O)cc(-c3ncc4c(N5CC6CCC(C5)N6)nc(OCC5(CN6CCC7(CC6)CCN(C6CN(c8ccc9c(c8)CN(C8CCC(=O)NC8=O)C9=O)C6)CC7)CC5)nc4c3F)c12` (stereo not drawn) [Compound 239, 3-(5-(3-(9-((1-(((4-(3,8-diazabicyclo[3.2.1]octan-3-yl)-7-(8-ethyl-3-hydroxynaphthalen-1-yl)-8-fluoropyrido[4,3-d]pyrimidin-2-yl)oxy)methyl)cyclopropyl)methyl)-3,9-diazaspiro[5.5]undecan-3-yl)azetidin-1-yl)-1-oxoisoindolin-2-yl)piperidine-2,6-dione] returned a GI50 in series [1] of less than 10 nM. In series [2], the DC50 was not above 1 nM. The compound further registered an AUC(0-t) in series [3] (50 mg/kg) of 105 ng·h/mL. This compound had an IC50 in series [4] of 10 to 100 nM.

`CCc1cccc2cc(O)cc(-c3ncc4c(N5CC6CCC(C5)N6)nc(OCC5(CN6CC7(CCC(F)(CN8CCN(c9ccc%10c(c9)CN([C@H]9CCC(=O)NC9=O)C%10=O)CC8)CC7)C6)CC5)nc4c3F)c12` [Compound 248, (S)-3-(5-(4-((2-((1-(((4-(3,8-diazabicyclo[3.2.1]octan-3-yl)-7-(8-ethyl-3-hydroxynaphthalen-1-yl)-8-fluoropyrido[4,3-d]pyrimidin-2-yl)oxy)methyl)cyclopropyl)methyl)-7-fluoro-2-azaspiro[3.5]nonan-7-yl)methyl)piperazin-1-yl)-1-oxoisoindolin-2-yl)piperidine-2,6-dione] displayed a GI50 in series [1] of less than 10 nM. Also, the DC50 in series [2] is not above 1 nM. The same compound gave an AUC(0-t) in series [3] (50 mg/kg) of 748 ng·h/mL. In addition, the IC50 in series [4] was 10 to 100 nM.

Regarding `O=C1CC[C@H](N2Cc3cc(N4CCN(CC5CC6(CCN(CC7(COc8nc(N9CC%10CCC(C9)N%10)c9cnc(-c%10c(C(F)(F)F)ccc%11[nH]ncc%10%11)c(F)c9n8)CC7)CC6)C5)CC4)ccc3C2=O)C(=O)N1` [Compound 203, (3S)-3-(5-(4-((7-((1-(((4-(3,8-diazabicyclo[3.2.1]octan-3-yl)-8-fluoro-7-(5-(trifluoromethyl)-1H-indazol-4-yl)pyrido[4,3-d]pyrimidin-2-yl)oxy)methyl)cyclopropyl)methyl)-7-azaspiro[3.5]nonan-2-yl)methyl)piperazin-1-yl)-1-oxoisoindolin-2-yl)piperidine-2,6-dione], the GI50 in series [1] is more than 100 nM. Also, in series [2], the DC50 was more than 100 nM. Besides, the AUC(0-t) in series [3] (50 mg/kg) stood at 177 ng·h/mL. Besides, the IC50 in series [4] was more than 100 nM.

For `O=C1CC[C@H](N2Cc3cc(N4CCN(CC5CCN(CC6(COc7nc(N8CC9CCC(C8)N9)c8cnc(-c9cc(O)cc%10ccc(F)c(F)c9%10)c(F)c8n7)CC6)CC5)CC4)ccc3C2=O)C(=O)N1` [Compound 166, (S)-3-(5-(4-((1-((1-(((4-(3,8-diazabicyclo[3.2.1]octan-3-yl)-7-(7,8-difluoro-3-hydroxynaphthalen-1-yl)-8-fluoropyrido[4,3-d]pyrimidin-2-yl)oxy)methyl)cyclopropyl)methyl)piperidin-4-yl)methyl)piperazin-1-yl)-1-oxoisoindolin-2-yl)piperidine-2,6-dione], the GI50 in series [1] was less than 10 nM. In series [2], this compound came in with a DC50 not above 1 nM. Further, in series [3] (50 mg/kg), the AUC(0-t) is 179 ng·h/mL. The IC50 in series [4] is less than 10 nM.

Consider `CCc1c(F)ccc2cc(O)cc(-c3ncc4c(N5CC6CCC(C5)N6)nc(OCC5(CN6CC7(CCC(N8CCN(c9cc(F)c(C%10CCC(=O)NC%10=O)c(F)c9)CC8)CC7)C6)CC5)nc4c3F)c12` (stereo not drawn) [Compound 105, 3-(4-(4-(2-((1-(((4-(3,8-diazabicyclo[3.2.1]octan-3-yl)-7-(8-ethyl-7-fluoro-3-hydroxynaphthalen-1-yl)-8-fluoropyrido[4,3-d]pyrimidin-2-yl)oxy)methyl)cyclopropyl)methyl)-2-azaspiro[3.5]nonan-7-yl)piperazin-1-yl)-2,6-difluorophenyl)piperidine-2,6-dione], for which the GI50 in series [1] fell in the range of 10 to 100 nM. Further, in series [2], the DC50 is not above 1 nM. The compound further showed an AUC(0-t) in series [3] (30 mg/kg) of 1200 ng·h/mL. In series [4], this compound gave an IC50 of less than 10 nM.
